Measurements published in patent US20120258975A1, “Potent Small Molecule Inhibitors of Autophagy, and Methods of Use Thereof” (Shanghai Institute of Organic Chemistry, priority 2009, published 2012).

Key:
Vps34 complex = target: T1, Vps34 complex (Homo sapiens, UniProt Q8NEB9); assay: Vps34 complex kinase assay (PtdIns phosphorylation, TLC); format: biochemical; conditions: immunoprecipitated HA-Vps34 complex from 293T; wortmannin 10 uM
T1 construct: expressed in transfected cells; host or cells: 293T

[1] = system: LC3-GFP (H4-LC3-GFP cells); assay: Starvation induced autophagy in H4-LC3-GFP cells; format: cell-based; conditions: Hanks buffer 1 h; MBCQ 5 μM, 3-MA 10 mM, wortmannin 0.1 μM
From the text: FIG. 2 depicts results relating to MBCQ inhibition of autophagy induced by starvation. Quantitative measurement of LC3-GFP spot number per cell (a), spot size per cell (b) and spot intensity per cell (c) using HCS and expressed as % of control.

[2] = system: ubiquitin-proteasomal degradation pathway; assay: Proteasomal degradation pathway (pEGFP-CL1, polyubiquitination); format: cell-based
Protocol: In addition, the effect of MBCQ on proteasomal degradation pathway using pEGFP-CL1, a GFP fusion with a short-lived peptide was determined (Bence, N. F., Sampat, R. M., and Kopito, R. R. (2001). Impairment of the ubiquitin-proteasome system by protein aggregation. Science 292, 1552-1555).

Beclin1 = assay: Ubiquitination of Beclin1 in 293T cells; format: cell-based
Protocol: FIG. 16 depicts results of experiments showing that spautin promotes the degradation of Beclin1 through proteasomal pathway. […] DMSO (1‰), MBCQ (10 μM), spautin (10 μM), NH4Cl (10 mM), MG132 (5 μM). […] B, 293T cells were transfected with GFP-Beclin1 and HA-Ub expression vectors.
Ubiquitination represents an essential key step in mediating proteasomal degradation. Experiments were therefore run to determine if ubiquitination of Beclin1 is increased in cells treated with C43.

MDA-MB-231 cells = assay: MDA-MB-231 cell survival under serum free condition; format: cell-based
Protocol: Since autophagy is activated under metabolic stress conditions to support cell survival, compounds were tested to determine if they promote cell death under starvation condition.

MDCK cells = MDCK cells under glucose-free condition; format: cell-based, canine
From the text: Hs578Bst cells, established from normal tissue peripheral to the tumor and is myoepithelial in origin, also were not sensitive to spautin (FIGS. 12C and 12D).

Bcap-37 cells = assay: Bcap-37 cells, normal and glucose free condition; format: cell-based
Protocol: FIG. 11 depicts results showing that selected cancer cell lines are sensitive to MBCQ and its active derivatives under glucose free condition. BT549 cells were treated with indicated concentrations of C43 for 24 h in normal DMEM (A) or under serum free condition (B). The cell viability was assayed by MTT or harvested for western blotting assay with anti-LC3 (C). MCF-7 cells were treated with DMSO (1‰), C43 (10 μM) in DMEM with (D) or without (E) glucose, for 12 h. The cell viability was assayed by MTT or images (F). […] Bcap-37 cells were treated with indicated concentrations of C43 for 24 h in normal DMEM (H) or under serum free condition (I). The cell viability was assayed by MTT or images (J) And the cell lysates treated with C43 for indicated time were analyzed by western blotting using anti-PARP (L) or anti-LC3 (M) and α-tubulin was used as a loading control. (K) Cell cycle profile of Bcap-37 treated with C43. Bcap-37 cells were treated with DMSO (0.1%) (left figure), C43 (10 μM) (right figure) for 12 h. The cells were then fixed with 70% ethanol, stained with propidium iodide (PI, 40 μg/mL) and treated with RNase enzyme (200 μg/mL) solution for 30 min in dark. Cell cycle profile and possible apoptotic death were statistics analyzed by flow cytometer.
To explore the mechanism by which C43 induces the death of Bcap-37 cells, the DNA content was analyzed by FACS.

[3] = system: USP10/Beclin1 and USP13/Beclin1 interaction; assay: USP10 or USP13 / GFP-Beclin1 co-immunoprecipitation in 293T cells; format: cell-based; conditions: 10 μM, 4 h, with MG132
Protocol: To further confirm that USP10 and USP13 are the deubiquitinating proteases of Vps34 complexes, the interaction of Flag-USP10/GFP-Beclin1 and Myc-USP13/GFP-Beclin1 in 293T cells was assayed with immunoprecipitation. […] Furthermore, this may provide a mechanism to explain why beclin1 is frequently lost in many kinds of cancers as the loss of beclin1 may lead to a reduction of p53 by inhibiting its deubiquitining proteases.

LC3 = LC3 western blotting in MEF cells; format: cell-based, mouse; conditions: 4 hours, 10 μM, rapamycin 0.2 μM
Protocol: FIG. 5 depicts results related to showing that active derivatives of MBCQ reduce the levels of LC3II in MEF cells. […] The cell lysates were collected for western blotting using anti-LC3 antibody. B, Electron microscopy confirmation of the autophagy inhibitory effects of C43 (spautin) on MEF cells. MEF cells were treated with vehicle control (1‰ DMSO), and other indicated compounds for 4 h. Rapamycin (0.2 μM) and C43 (spautin) (10 μM). Then the cells were fixed with glutaraldehyde and prepared the sample for EM assay. Bar, 1:11,000. Arrows indicate double and multi-membrane autophagosomic vesicles. N: nucleus.
To confirm the inhibitory activity on autophagy, mouse embryo fibroblasts (MEF) cells were treated with C29, C43 or C71 for 4 hours in the presence or absence of rapamycin and the levels of autophagy were determined by LC3 western blotting. […] (FIG. 5A).

[4] = system: USP3, USP10, USP13, USP16, USP18; assay: USP protein levels (western blot)
Protocol: H4 cells were transfected with indicated siRNAs for 72 hrs or treated with rapamycin (0.2 μM) or spautin (10 μM) for 4 hrs, and non-target siRNA (N. T. siRNA) was used as negative control. The cell lysates were harvested and analyzed by western blotting using (Left): antibodies specific for the indicated proteins. Anti-α-tubulin was used as loading controls.

T1 sequence (Q8NEB9 whole entry): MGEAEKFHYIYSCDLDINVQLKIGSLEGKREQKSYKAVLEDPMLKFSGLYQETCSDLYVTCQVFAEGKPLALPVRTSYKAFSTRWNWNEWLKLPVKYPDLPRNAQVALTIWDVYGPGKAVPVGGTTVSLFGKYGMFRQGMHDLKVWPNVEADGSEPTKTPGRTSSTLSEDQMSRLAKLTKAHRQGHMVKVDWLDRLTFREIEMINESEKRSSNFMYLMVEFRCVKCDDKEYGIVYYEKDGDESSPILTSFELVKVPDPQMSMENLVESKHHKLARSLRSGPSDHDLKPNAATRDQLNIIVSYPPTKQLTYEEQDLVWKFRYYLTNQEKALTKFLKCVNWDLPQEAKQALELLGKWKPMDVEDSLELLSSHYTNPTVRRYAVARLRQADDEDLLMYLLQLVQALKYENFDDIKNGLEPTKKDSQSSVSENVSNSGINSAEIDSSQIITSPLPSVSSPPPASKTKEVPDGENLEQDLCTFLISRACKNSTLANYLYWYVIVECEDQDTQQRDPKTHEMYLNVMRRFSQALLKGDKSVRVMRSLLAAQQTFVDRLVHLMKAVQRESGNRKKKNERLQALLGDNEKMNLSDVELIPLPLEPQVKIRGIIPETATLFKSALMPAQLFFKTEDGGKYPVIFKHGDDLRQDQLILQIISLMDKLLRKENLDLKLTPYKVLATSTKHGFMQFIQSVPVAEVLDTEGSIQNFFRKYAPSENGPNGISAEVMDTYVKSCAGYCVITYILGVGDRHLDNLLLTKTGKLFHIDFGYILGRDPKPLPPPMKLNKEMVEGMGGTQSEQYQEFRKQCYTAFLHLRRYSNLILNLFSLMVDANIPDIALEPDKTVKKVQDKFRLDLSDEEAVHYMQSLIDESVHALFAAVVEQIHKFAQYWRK
T1 sequence (Q14457 whole entry partner): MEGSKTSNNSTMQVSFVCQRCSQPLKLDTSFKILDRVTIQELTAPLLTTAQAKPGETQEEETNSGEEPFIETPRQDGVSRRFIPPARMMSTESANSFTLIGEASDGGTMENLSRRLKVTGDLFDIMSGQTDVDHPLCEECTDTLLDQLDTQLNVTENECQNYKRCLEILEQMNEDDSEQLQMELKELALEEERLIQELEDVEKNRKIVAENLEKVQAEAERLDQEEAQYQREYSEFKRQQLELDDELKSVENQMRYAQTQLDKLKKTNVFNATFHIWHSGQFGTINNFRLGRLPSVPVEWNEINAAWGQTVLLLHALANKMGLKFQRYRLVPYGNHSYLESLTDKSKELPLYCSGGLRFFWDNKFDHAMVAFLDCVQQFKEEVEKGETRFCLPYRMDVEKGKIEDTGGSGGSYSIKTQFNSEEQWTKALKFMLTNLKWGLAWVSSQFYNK

Clc1ccc2ncnc(NCc3ccc4c(c3)OCO4)c2c1 [MBCQ]
phosphorylation of PtdIns by Vps34 complex (Vps34 complex): not a direct inhibitor of Vps34 enzymatic activity
starvation induced autophagy (LC3-GFP spot number, size, intensity) [1]: significantly reduced
general levels of polyubiquitination [2]: no effect on the general levels of polyubiquitination
levels of pEGFP-CL1 [2]: does not affect the levels of pEGFP-CL1

Fc1ccc(CNc2ncnc3ccc(F)cc23)cc1 [C43, 6-fluoro-N-(4-fluorobenzyl)quinazolin-4-amine]
ubiquitination of Beclin1 (Beclin1): promoted the ubiquitination of Beclin1
cell survival (MDA-MB-231 cells): reduced the survival
apoptosis (MDCK cells): did not induce apoptosis
growth suppression (MDCK cells; 10 μM of spautin for 48 hrs): ~25%
autophagy (western blot) (Bcap-37 cells; basal and glucose-free conditions): inhibited autophagy
sensitivity of cells to compound (Bcap-37 cells; glucose free condition): highly sensitive
DNA content by FACS (Bcap-37 cells; glucose-free condition): induced a peak of sub-diploid DNA
proliferation (Bcap-37 cells; in the presence of 10% bovine serum): inhibited the proliferation
interaction of Flag-USP10 with GFP-Beclin1 [3]: impair the interaction
autophagy induced by rapamycin (LC3 western blotting) (LC3): inhibited autophagy induced by rapamycin
levels of USP13 and USP10 ([4]; 293T cells and Bcap-37 cells): reduce the levels of USP13 and USP10
levels of USP44 ([4]; 293T cells and Bcap-37 cells): little effect
levels of USP3, USP10, USP13, USP16 and USP18 ([4]; H4 cells, 10 μM, 4 hrs): reduced the levels of these five USPs
